Measurements as given in the supplement of paper PMC6045584.
± gives the standard deviation of the averaged measurements.

Experiments:
[1] = compound: Cn1cc(C2=Nc3cc(NC(=O)C(N)C4CCCCC4)cc4c3C2=CNNC4=O)cn1; assay: surviving fraction relative to DMSO-only wells; higher = less growth inhibition; conditions: exposure time: 5 days
Procedure, shortened: (§1)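 At 250–500 cells per well in 384-well plates, log-phase tumour cell lines were seeded and, 24 hours on, exposed continuously for five days to inhibitors at 0.5, 1, 5, 10, 50, 100, 500 and 1000 nM. Viability readout was CellTiter-Glo luminescence, reported as surviving fraction normalised to the median of DMSO-only wells.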

[2] = compound: Nc1nc2[nH]cnc2c(=S)[nH]1 [TIOGUANINE]; assay: as above; conditions: exposure time: 5 days
Procedure, shortened: as §1

Row | Test System | surviving fraction ([1]; 0.5 nM) | surviving fraction ([1]; 1 nM) | surviving fraction ([1]; 5 nM) | surviving fraction ([1]; 10 nM) | surviving fraction ([1]; 50 nM) | surviving fraction ([1]; 100 nM) | surviving fraction ([1]; 500 nM) | surviving fraction ([1]; 1000 nM) | surviving fraction ([2]; 0.5 nM) | surviving fraction ([2]; 1 nM) | surviving fraction ([2]; 5 nM) | surviving fraction ([2]; 10 nM) | surviving fraction ([2]; 50 nM) | surviving fraction ([2]; 100 nM) | surviving fraction ([2]; 500 nM) | surviving fraction ([2]; 1000 nM)
1 | HCC202 BREAST | 0.89 ± 0.18 | 0.775 ± 0.22 | 0.967 ± 0.15 | 0.838 ± 0.22 | 0.66 ± 0.27 | 0.505 ± 0.18 | 0.274 ± 0.049 | 0.341 ± 0.054 | 1.28 ± 0.11 | 1.25 ± 0.14 | 1.32 ± 0.35 | 1.3 ± 0.28 | 1.32 ± 0.14 | 1.78 ± 0.35 | 1.2 ± 0.19 | 1.24 ± 0.067
2 | HCC1395 BREAST | 0.805 ± 0.1 | 0.961 ± 0.16 | 0.938 ± 0.13 | 0.975 ± 0.11 | 0.766 ± 0.071 | 0.68 ± 0.17 | 0.578 ± 0.088 | 0.521 ± 0.065 | 0.999 ± 0.06 | 1.12 ± 0.064 | 0.968 ± 0.1 | 1.11 ± 0.054 | 1.05 ± 0.039 | 1.16 ± 0.04 | 1.11 ± 0.086 | 1.09 ± 0.081
3 | HCC1806 BREAST | 1.08 ± 0.062 | 1.16 ± 0.14 | 1.09 ± 0.071 | 1.05 ± 0.092 | 0.528 ± 0.15 | 0.145 ± 0.041 | 0.0373 ± 0.0042 | 0.0433 ± 0.0025 | 0.989 ± 0.061 | 1.1 ± 0.059 | 1.08 ± 0.11 | 1.08 ± 0.12 | 1.13 ± 0.15 | 1.13 ± 0.19 | 1.03 ± 0.12 | 0.952 ± 0.061
4 | HCC1954 BREAST | 0.772 ± 0.092 | 0.584 ± 0.042 | 0.927 ± 0.019 | 0.889 ± 0.035 | 0.571 ± 0.011 | 0.6015 ± 0.0014 | 0.1713 ± 0.0011 | 0.0897 ± 0.0074 | 0.867 ± 0.18 | 0.986 ± 0.24 | 1.08 ± 0.075 | 0.96 ± 0.1 | 0.997 ± 0.18 | 0.911 ± 0.05 | 0.969 ± 0.054 | 0.871 ± 0.051
5 | HCT15 LARGE INTESTINE | 0.997 ± 0.079 | 1.05 ± 0.034 | 1.07 ± 0.0081 | 1.05 ± 0.037 | 1 ± 0.063 | 1.05 ± 0.045 | 1 ± 0.031 | 0.951 ± 0.028 | 0.968 ± 0.012 | 0.913 ± 0.05 | 0.979 ± 0.016 | 0.967 ± 0.051 | 1.02 ± 0.067 | 1.06 ± 0.023 | 1.04 ± 0.015 | 0.995 ± 0.012
6 | HELA CERVIX | 1.1 ± 0.028 | 1.1 ± 0.059 | 1.11 ± 0.045 | 1.01 ± 0.013 | 1.11 ± 0.082 | 1.15 ± 0.035 | 1.15 ± 0.038 | 1.09 ± 0.046 | 0.998 ± 0.074 | 1.03 ± 0.053 | 0.994 ± 0.015 | 0.997 ± 0.055 | 1.06 ± 0.024 | 1.14 ± 0.019 | 1.14 ± 0.059 | 1.21 ± 0.056
7 | HMT3552 BREAST | 0.92 | 1.07 | 1.02 | 0.936 | 0.999 | 1.03 | 0.176 | 0.097 | 1.11 | 1.06 | 1.05 | 1.04 | 1.05 | 1.12 | 0.591 | 0.38
8 | HOS BONE | 1.024 ± 0.0086 | 1.03 ± 0.038 | 1.04 ± 0.041 | 1.02 ± 0.016 | 0.908 ± 0.052 | 0.524 ± 0.05 | 0.0407 ± 0.0015 | 0.0373 ± 0.0015 | 1 ± 0.011 | 0.9977 ± 0.0091 | 1.004 ± 0.0085 | 1.02 ± 0.032 | 1.05 ± 0.033 | 1.038 ± 0.0061 | 0.75 ± 0.037 | 0.612 ± 0.016
9 | HOSMNG BONE | 0.954 ± 0.099 | 0.99 ± 0.083 | 0.954 ± 0.052 | 0.943 ± 0.016 | 0.992 ± 0.025 | 0.975 ± 0.076 | 0.737 ± 0.017 | 0.15 ± 0.031 | 0.991 ± 0.03 | 1.01 ± 0.029 | 0.988 ± 0.068 | 0.989 ± 0.016 | 1.05 ± 0.047 | 1.02 ± 0.089 | 1.04 ± 0.037 | 0.983 ± 0.028
10 | HS57T BREAST | 1.04 ± 0.02 | 1.09 ± 0.027 | 1.11 ± 0.019 | 1.08 ± 0.047 | 0.967 ± 0.07 | 0.72 ± 0.027 | 0.097 ± 0.0087 | 0.0793 ± 0.0038 | 0.9547 ± 0.0035 | 1.02 ± 0.087 | 0.99 ± 0.03 | 0.988 ± 0.029 | 0.928 ± 0.04 | 1.03 ± 0.06 | 0.928 ± 0.016 | 0.945 ± 0.064
11 | HS578T BREAST | 0.986 ± 0.027 | 1.06 ± 0.057 | 0.946 ± 0.14 | 0.927 ± 0.037 | 0.788 ± 0.051 | 0.485 ± 0.049 | 0.162 ± 0.0082 | 0.174 ± 0.021 | 0.998 ± 0.085 | 0.872 ± 0.14 | 0.944 ± 0.082 | 0.959 ± 0.075 | 0.923 ± 0.12 | 0.985 ± 0.12 | 1.01 ± 0.068 | 0.897 ± 0.17
12 | HT1080 SOFT TISSUE | 0.977 ± 0.013 | 1.01 ± 0.03 | 0.987 ± 0.028 | 1.03 ± 0.025 | 0.879 ± 0.041 | 0.812 ± 0.013 | 0.153 ± 0.0023 | 0.122 ± 0.016 | 1 ± 0.012 | 0.989 ± 0.026 | 0.982 ± 0.016 | 1.04 ± 0.016 | 1.02 ± 0.041 | 0.974 ± 0.022 | 0.81 ± 0.013 | 0.594 ± 0.036
13 | HU09 BONE | 0.977 ± 0.039 | 1.02 ± 0.062 | 1.02 ± 0.058 | 0.975 ± 0.015 | 0.6343 ± 0.0057 | 0.372 ± 0.033 | 0.073 ± 0.0061 | 0.0617 ± 0.011 | 0.964 ± 0.059 | 1.05 ± 0.071 | 1.05 ± 0.041 | 1.1 ± 0.074 | 1.04 ± 0.062 | 1.09 ± 0.089 | 1.06 ± 0.015 | 0.927 ± 0.11
14 | JURKAT HAEMATOPOIETIC AND LYMPHOID TISSUE | 1.08 ± 0.016 | 1.13 ± 0.013 | 1.07 ± 0.021 | 1.06 ± 0.036 | 0.868 ± 0.019 | 0.295 ± 0.022 | 0.023 | 0.0237 ± 0.00058 | 1.05 ± 0.034 | 1.07 ± 0.032 | 1.07 ± 0.04 | 1.043 ± 0.0097 | 1.02 ± 0.039 | 1.04 ± 0.018 | 1.01 ± 0.012 | 0.565 ± 0.013
15 | KPD BONE | 0.953 ± 0.041 | 0.891 ± 0.018 | 1.19 ± 0.24 | 0.977 ± 0.026 | 0.84 ± 0.028 | 0.389 ± 0.021 | 0.0873 ± 0.0023 | 0.0763 ± 0.008 | 0.998 ± 0.045 | 0.985 ± 0.098 | 0.989 ± 0.049 | 1 ± 0.047 | 1.03 ± 0.084 | 1.05 ± 0.027 | 1.03 ± 0.019 | 0.993 ± 0.059
16 | LNCAP PROSTATE | 0.922 ± 0.12 | 1.11 ± 0.11 | 0.926 ± 0.14 | 0.915 ± 0.15 | 1.23 ± 0.052 | 1.06 ± 0.12 | 0.544 ± 0.024 | 0.287 ± 0.031 | 0.933 ± 0.078 | 0.912 ± 0.028 | 0.955 ± 0.17 | 0.964 ± 0.09 | 1.07 ± 0.11 | 0.976 ± 0.085 | 0.971 ± 0.06 | 0.977 ± 0.07
